Data taken from ChEMBL document CHEMBL5380777, “Efficacy, Mechanism, and Structure-Activity Relationship of 6-Methoxy Benzofuran Derivatives as a Useful Tool for Senile Osteoporosis” (J Med Chem, 2023).
Active and inactive are the calls of the source. No cut-off for these calls is given here.

Legend:
Mus musculus [1] = experiment: Anti osteoporosis in 16 months old C57 mouse assessed as increase in bone mass administered at 30 mg/kg/day, IG continuously for 2 months by micro CT analysis relative to young control group; type: functional, organism-based
Mus musculus [2] = experiment: Anti osteoporosis in 16 months old C57 mouse assessed as T cell level in femur administered at 30 mg/kg/day, IG continuously for 4 months by scRNA-seq analysis (reference value: 10.54%); type: functional; details: 2920 h
Mus musculus [3] = experiment: Anti osteoporosis in 2.5 months old SAMP-6 rapid aging mouse model assessed as increase in bone mass administered at 30 mg/kg/day, IG continuously for 3 months in presence of ALN by micro CT analysis; type: functional, organism-based
Osteoblast [4] = experiment: Regulation of osteogenesis in 16 months old C57 mouse osteoblast endoplasmic reticulum assessed as increase in Hsp90aa1 gene by scRNA-seq analysis; type: functional, cell-based
[5] = Toxicity in 16 months old C57 mouse assessed as change in blood glucose level administered at 30 mg/kg/day, IG continuously for 4 months; type: organism-based; details: in vivo, po, 2920 h
Osteoblast [6] = experiment: Upregulation of transcription factor MYC expression in 16 months old C57 mouse osteoblast by scRNA-seq analysis; type: functional, cell-based
Osteoblast [7] = experiment: Regulation of osteogenesis in 16 months old C57 mouse osteoblast endoplasmic reticulum assessed as increase in CRYAB gene by scRNA-seq analysis; type: functional, cell-based
Osteoblast [8] = experiment: Upregulation of BMP-2 expression in 16 months old C57 mouse osteoblast by scRNA-seq analysis; type: functional, cell-based
Mus musculus [9] = experiment: Anti osteoporosis in 16 months old C57 mouse assessed as myeloid progenitor level in femur administered at 30 mg/kg/day, IG continuously for 4 months by scRNA-seq analysis (reference value: 2.18%); type: functional; details: 2920 h
[10] = Acute toxicity in wildtype 3 days post-fertilization AB zebrafish at more than 10 uM; design: species or system Danio rerio; details: in vivo, 72 h

Compound: COc1ccc2cc(C(=O)NCCN(C)C)oc2c1.CS(=O)(=O)O
- Activity (Mus musculus [1]): inactive
- Activity (Mus musculus [2]): 8.96%
- Activity (Mus musculus [3]): Active
- Activity (Osteoblast [4]): Active
- Activity [5]: Non-Toxic
- Activity (Osteoblast [6]): Active
- Activity (Osteoblast [7]): Active
- Activity (Osteoblast [8]): Active
- Activity (Mus musculus [9]): 0.32%
- Activity [10]: Toxic
